In US20220304286A1, “SYSTEMS AND METHODS FOR IN VIVO DUAL RECOMBINASE-MEDIATED CASSETTE EXCHANGE (dRMCE) AND DISEASE MODELS THEREOF” (CEDARS-SINAI MEDICAL CENTER, priority 2019, published 2022):
Entries after “also recorded” stand apart in the source; their conditions may differ.

How the values were obtained:
[1] = tested on: NPCs (tdTomato+ non-tumor control cells); experiment: High-throughput drug testing: live-cell imaging of proliferation, non-tumor control NPCs; assay type: cell-based, mouse; details: imaged for 92 hours, paired toxicity screening
Experimental: (§1) In high-throughput drug testing experiments, 10.000 cell from the cell lines generated from tumor dissociation and non-tumor control cells were plated in 96 well plates. 24 hours after the seeding appropriate concentration of each drug (1 μM for Vacquinol-1(Sigma-Aldrich, SML1187) and 0.5 μM for AKT 1/2 kinase inhibitor (Sigma- Aldrich, A6730)) was added to the media and cells were imaged for 92 hours in phase contrast using Incucyte S3 System. Images were collected every 2 hours using Incucyte S3 Software. Cell proliferation images analysis was done with Incucyte S3 software and normalized results presented and analyzed with Graphpad Prism 7.
(§2) Mice were euthanized in CO2 chamber and brains were collected in PBS. Immediately, EGFP+ tissue was micro-dissected under a Revolve Hybrid Microscope (Echo Labs, San Diego, Calif.). If allowed by the size of the tumor, some remains of the brain with residual tumor tissue was fixed in 4% PFA for tissue analysis. Microdissected tissue was mechanically dissociated into <1 mm pieces and further digested with Collagenase IV (Worthington Biochemical, Lakewood, N.J.), and DNAse I (Worthington Biochemical, Lakewood, N.J.). The resultant single cell suspension was filtered through […] cell strainer (Stellar Scientific, Baltimore, Md.) and erythrocytes were lysed with ACK lysis buffer (Thermo Fisher Scientific, Waltham, Mass.). Single cell suspensions were split into 3 parts: First, for scRNAseq or sc-ATACseq experiments, GFP+ cells from single cell samples were FACS sorted (into 1.5 ml tubes for 10× Chromium). A secondary fraction was used for in vitro cell line establishment. […]

MADR K27M tumor cells = experiment: High-throughput drug testing: live-cell imaging of proliferation, MADR K27M tumor cell lines; assay type: cell-based, mouse; details: imaged for 92 hours, Incucyte phase contrast, 4 biological replicates
Experimental: as §1
as §2, with “Mass.).” for “Mass.). Single cell suspensions were split into 3 parts: First, for scRNAseq or sc-ATACseq experiments, GFP+ cells from single cell samples were FACS sorted (into 1.5 ml tubes for 10× Chromium). A secondary fraction was used for in vitro cell line establishment.”

K27M tumor cells = details: earlier finding, no details given; cited from earlier work
[2] = AKT 1/2 kinase inhibitor 0.5 μM

SMILES | cell proliferation of NPCs [1, 2] | cell proliferation of NPCs ([1]; AKT 1/2 kinase inhibitor 0.5 μM, listed as Akt1/2 inhibitor) | cell proliferation of K27M tumor population (MADR K27M tumor cells; [2]) | toxicity to K27M tumor cells (previously identified) (K27M tumor cells) | cell proliferation of NPCs ([1]; Vacquinol-1 1 μM) | cell proliferation of K27M tumor population (MADR K27M tumor cells; Vacquinol-1 1 μM)
O=c1[nH]c2ccccc2n1C1CCN(Cc2ccc(-c3nc4cc5nc[nH]c5cc4nc3-c3ccccc3)cc2)CC1 [Akt1/2 kinase inhibitor] | decreases proliferation | similarly inhibited NPC proliferation | decreases proliferation | selectively toxic to K27M tumor cells | – | –
OC(c1cc(-c2ccc(Cl)cc2)nc2ccccc12)C1CCCCN1 (stereo not shown) [Vacquinol-1] | – | – | – | selectively toxic to K27M tumor cells | does not alter NPC culture growth | inhibits K27M growth; also recorded: decreases proliferation preferentially
